One assay relates to corn poppy (CP). In words: Ex2 PRE greenhouse, % control. Conditions: 21 DAT, g ai/ha by row: r12-40 2,4-DC 31.25/62.5/125/250/375 (3 rows each) + metazachlor 250/500/750 (cycling), r42-46 2,4-DC 31.25/62.5/125/250/375, r47-49 metazachlor 250/500/750. The assay is classed as in vivo, Papaver rhoeas. As for the experimental part:
(§1) Test compositions containing 2,4 DC Example 1B and metazachlor (Butisan® S, 43.1% active ingredient, BASF) and mixtures of 2-(2,4-dichlorophenyl)methyl-4,4-dimethyl-3-isoxazolidinone and metazachlor, were diluted with water to provide the appropriate test rate concentrations.
(§2) The test crops were wheat and canola (Brassica napus), the test weeds were Italian ryegrass (IR) (Lolium perenne. multiflorum), annual bluegrass (AB) (Poa annua), common lambsquarters (CL) (Chenopodium album), littleseed canarygrass (LC) (Phalaris minor), common chickweed (CC) (Stellaria media), and corn poppy (CP) (Papaver rhoeas).
(§3) For pre-emergence testing, four disposable fiber flats (6″ by 10″) for each rate of application of each herbicide solution were filled with top soil, to which seeds of each species were planted in furrows made by a template pressed on the top of the soil. The furrows were covered with soil after planting the seed and were watered well before application of the test compounds. […]
(§4) The control of weeds was evaluated in each experimental test at 21 days after treatment (DAT) for corn poppy and wheat and 28 DAT for all other species. […]
(§5) Percent control was determined by a method similar to the 0 to 100 rating system disclosed in “Research Methods in Weed Science,” 2nd ed., B. Truelove, Ed.; Southern Weed Science Society; Auburn University, Auburn, Ala., 1977.

The test system of another assay is annual bluegrass (AB). The experiment in a line: Ex2 PRE greenhouse, % control. Conditions: 28 DAT, g ai/ha by row: r12-40 2,4-DC 31.25/62.5/125/250/375 (3 rows each) + metazachlor 250/500/750 (cycling), r42-46 2,4-DC 31.25/62.5/125/250/375, r47-49 metazachlor 250/500/750. The assay is classed as in vivo, Poa annua. As for the experimental part:
as §1, §2, §3, §4, §5

For the next assay, the system named is common chickweed (CC). In words: Ex2 PRE greenhouse, % control. The assay is classed as in vivo, Stellaria media. Conditions: 28 DAT, g ai/ha by row: r12-40 2,4-DC 31.25/62.5/125/250/375 (3 rows each) + metazachlor 250/500/750 (cycling), r42-46 2,4-DC 31.25/62.5/125/250/375, r47-49 metazachlor 250/500/750. The procedure:
as §1, §2, §3, §4, §5

Another assay concerns Italian ryegrass (IR). In words: Ex2 PRE greenhouse, % control. Conditions: 28 DAT, g ai/ha by row: r12-40 2,4-DC 31.25/62.5/125/250/375 (3 rows each) + metazachlor 250/500/750 (cycling). The assay is classed as in vivo, Lolium perenne. multiflorum. The procedure:
as §1, §2
For pre-emergence testing, four disposable fiber flats (6″ by 10″) for each rate of application of each herbicide solution were filled with top soil, to which seeds of each species were planted in furrows made by a template pressed on the top of the soil. The furrows were covered with soil after planting the seed and were watered well before application of the test compounds.
Fiber flats designated for treatment were placed in a spray chamber having a static platform and a movable sprayer and height of the spray nozzle was 10.5 inches above the soil level. Once the sprayer was calibrated using water for spray volume of 30 gallons per acre, flats were sprayed with sprayer at a speed to receive a coverage equivalent of 30 gallons per acre. The application rates are those shown in Table 1 below for the individual herbicidal solutions and the herbicide compositions of the present invention. The pre-emergence flats were immediately placed in the greenhouse and watered lightly after treatment. Thereafter they were regularly watered and fertilized for the duration of the test.
The control of weeds was evaluated in each experimental test at 21 days after treatment (DAT) for corn poppy and wheat and 28 DAT for all other species. The results, shown as an average of the replications were compared with results observed in untreated control flats in the same tests.
as §5

The subject of another assay is weeds. In words: Ex18 PRE greenhouse. The assay is classed as in vivo. To be noted: weed and rate in the words. From the text: Additional treatments included application of metazachlor (Butisan®, 43.1%) at 750 g ai/ha, napropamide (Devrinol DF®, 50%) at 1260 g ai/ha, and dimethachlor (Teridox®, 48%) at 1000 g ai/ha. […] Treatments were applied just after the seeding of annual bluegrass, cheat, wild oat, quackgrass, field violet, blackgrass, littleseed canarygrass, silky windgrass, yellow foxtail, and goosegrass. […] Flats were watered and fertilized routinely after treatment application. Each treatment was replicated three times.

The test system of another assay is weeds; Wheat and canola. The experiment in a line: Ex27 PRE greenhouse. To be noted: weed and rate in the words. The assay is classed as in vivo. From the text:
The weeds tested in this study were Italian ryegrass (Lolium perenne. multiflorum, LOLMU), wild mustard (Sinapis arvensis, SINAR), annual bluegrass (Poa annua POAAN), wild oat (Avena fatua, AVEFA), blackgrass (Alopecurus myosuroides, ALOMY), common lambsquarters (Chenopodium album […] (Phalaris minor, PHAMI), common chickweed (Stellaria media, STEME), corn poppy (Papaver rhoeas PAPRH). The crops tested were Wheat and canola. […] Treatments were applied before the emergence of Italian ryegrass, wild oat, blackgrass, littleseed canarygrass, common chickweed, common lambsquarters, corn poppy, wild mustard, annual bluegrass, canola, and wheat. […] Flats were watered and fertilized routinely after treatment application. […] Wheat and corn poppy were rated at 14 and 21 DAT only.

The subject of assay [1] is littleseed canarygrass (LC). The experiment in a line: Ex2 PRE greenhouse, % control. The assay is classed as in vivo, Phalaris minor. Conditions: 28 DAT, g ai/ha by row: r12-40 2,4-DC 31.25/62.5/125/250/375 (3 rows each) + metazachlor 250/500/750 (cycling).
Source text: Fiber flats designated for treatment were placed in a spray chamber having a static platform and a movable sprayer and height of the spray nozzle was 10.5 inches above the soil level. Once the sprayer was calibrated using water for spray volume of 30 gallons per acre, flats were sprayed with sprayer at a speed to receive a coverage equivalent of 30 gallons per acre. […] The pre-emergence flats were immediately placed in the greenhouse and watered lightly after treatment. Thereafter they were regularly watered and fertilized for the duration of the test.
In assay [2] the test system is common lambsquarters (CL). The experiment in a line: Ex2 PRE greenhouse, % control. The assay is classed as in vivo, Chenopodium album. To be noted: 28 DAT, g ai/ha by row: r12-40 2,4-DC 31.25/62.5/125/250/375 (3 rows each) + metazachlor 250/500/750 (cycling), r42-46 2,4-DC 31.25/62.5/125/250/375, r47-49 metazachlor 250/500/750. As for the experimental part: as §1, §2, §3, §4, §5

The mark [3] stands for this setting: r42-46 2,4-DC 31.25/62.5/125/250/375, r47-49 metazachlor 250/500/750, 250 g ai/ha.
Setting [4] is: r42-46 2,4-DC 31.25/62.5/125/250/375, r47-49 metazachlor 250/500/750, 500 g ai/ha.

On to `Cc1cccc(C)c1N(Cn1cccn1)C(=O)CCl` [Metazachlor, metazachlor], for which the “% Control CP” value in the assay with corn poppy (CP) is 100%. Also, the “% Control AB” value in the assay with annual bluegrass (AB) amounted to 100%. The “% Control CC” value in the assay on common chickweed (CC) is 100%. The “% Control IR” value with Italian ryegrass (IR) (setting [3]) is reported as 96%; in the assay with Italian ryegrass (IR) (setting [4]) it was 98%; in the assay with Italian ryegrass (IR) (r42-46 2,4-DC 31.25/62.5/125/250/375, r47-49 metazachlor 250/500/750, 750 g ai/ha) it was 99%. Further, the “weed control in words” value with weeds is “controlled all weeds”; in the assay on weeds; Wheat and canola it was “alone controlled blackgrass at 750 g”. In addition, the “% Control LC” value in assay [1] (setting [3]) is given as 99%; in assay [1] (setting [4]) it was 100%. Besides, the “% Control CL” value in assay [2] came out at 100%.

Values taken from patent US12616203B2, “Use of 3-isoxazolidinones compounds as selective herbicides” (FMC Corporation, priority 2014, dated 2026).
